Here are results for ten compounds from ChEMBL document CHEMBL5576066, “Synthesis and evaluation of 3-hydroxyquinolin-2(1H)-one derivatives as inhibitors of tyrosinase” (Bioorg Med Chem Lett, 2024).

Structures are written as SMILES.

Assay [1] addresses T1, Mushroom tyrosinase (Agaricus bisporus, UniProt O42713+Q00024+C7FF04+C7FF05). Put plainly: Inhibition of mushroom tyrosinase using L-DOPA as substrate by spectrophotometric analysis. Format: protein assay.
The target in assay [2] is T1, Mushroom tyrosinase. Put plainly: Competitive inhibition of mushroom tyrosinase using L-DOPA as substrate assessed as inhibition constant by Lineweaver-Burk plots analysis. Format: protein assay.
The next assay has as its target T2, Tyrosinase (Homo sapiens, UniProt P14679).
T2 sequence (P14679 whole entry): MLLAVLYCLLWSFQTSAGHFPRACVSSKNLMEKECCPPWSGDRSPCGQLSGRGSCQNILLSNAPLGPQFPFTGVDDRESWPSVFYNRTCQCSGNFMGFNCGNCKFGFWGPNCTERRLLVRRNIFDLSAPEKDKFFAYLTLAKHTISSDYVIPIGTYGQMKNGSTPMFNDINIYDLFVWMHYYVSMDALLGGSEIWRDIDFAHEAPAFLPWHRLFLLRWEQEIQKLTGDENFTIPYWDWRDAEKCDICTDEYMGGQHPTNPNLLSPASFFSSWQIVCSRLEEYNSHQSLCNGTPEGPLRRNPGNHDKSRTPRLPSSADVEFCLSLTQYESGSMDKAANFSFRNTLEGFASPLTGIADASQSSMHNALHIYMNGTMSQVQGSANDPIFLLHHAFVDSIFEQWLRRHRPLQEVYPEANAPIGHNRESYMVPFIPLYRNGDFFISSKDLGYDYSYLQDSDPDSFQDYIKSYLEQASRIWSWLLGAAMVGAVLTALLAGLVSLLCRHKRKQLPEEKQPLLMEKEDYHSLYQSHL
Put plainly: Inhibition of human tyrosinase.

`O=c1[nH]c2ccccc2cc1O`: the IC50 (in general, the concentration that inhibits the measured activity by half) at Mushroom tyrosinase [1] came to 2.74 µM.
`O=c1[nH]c2ccc(Br)cc2cc1O` gave an IC50 against Mushroom tyrosinase [1] of 2.52 µM.
On to `CC(C)C(=O)Nc1nc(-c2ccc(O)cc2O)cs1`, for which the IC50 against Mushroom tyrosinase [1] is 0.13 µM.
As for `Cc1ccc2[nH]c(=O)c(O)cc2c1`, the Ki (commonly a measure of affinity in units of concentration, obtained from inhibition or displacement) on Mushroom tyrosinase [2] turned out to be 1.41 µM. At Mushroom tyrosinase [1], this compound gave an IC50 of 6.11 µM.
Regarding `O=c1[nH]c2cccc(Cl)c2cc1O`, at Mushroom tyrosinase [1], the IC50 is 92.7 µM.
Regarding `Cc1ccc2cc(O)c(=O)[nH]c2c1`, on Mushroom tyrosinase [1], the IC50 was found to be 173 µM.
Take `O=c1[nH]c2ccc(F)cc2cc1O`: at Mushroom tyrosinase [1], the IC50 is 3.57 µM.
On to `Cc1cc(C)c2cc(O)c(=O)[nH]c2c1`, for which the IC50 against Mushroom tyrosinase [1] was found to be 926 µM.
In turn, `Cc1cc2cc(O)c(=O)[nH]c2cc1C` returned an IC50 at Mushroom tyrosinase [1] of 43.5 µM.
Regarding `O=c1oc2ccccc2cc1O` [3-HYDROXYCOUMARIN], the values for the IC50 on Tyrosinase and on Mushroom tyrosinase [1] were 26 µM and 2.49 µM, respectively.
